Results as given in patent US20200123127A1, “REMOVAL OF SENESCENCE-ASSOCIATED MACROPHAGES” (EVERON BIOSCIENCES, INC., priority 2016, published 2020).
“Also recorded” adds a separate entry of the source. Where two headings read alike, the source gives them in different places.

Experiments:
[1] = tested on: SAMs; assay: SAM viability (CyQuant Direct / resazurin); format: cell-based, mouse; conditions: for SAM cell viability: 2.5 to 10 μM
Protocol: FIG. 8. Immunomodulatory regulation of p16(Ink4a) and SAβG in macrophages. Peritoneal lavage cells elicited by alginate-encapsulated SCs from p16^Ink4a/Luc mice were treated ex vivo with immunomodulatory agents for up to 72 hours. (A) mRNA expression of p16(Ink4a) and β-galactosidase (Glb1) in macrophages (relative to B2m expression) with or without LPS stimulation for 72 hours analyzed via qRT-PCR, normalized to non-treated controls. (B) Microphotograph of SAβG-stained adherence-selected macrophages with or without stimulation with LPS (1 ng/mL) for 72 hours (10× objective). (C&D) Kinetics of p16(Ink4a) promoter-dependent luciferase activity per cell with or without LPS stimulation (C) or IL-4 stimulation (D), normalized to activity from non-treated cells at time zero. Results are shown as the mean±standard deviation for at least 3 experiments. Statistical significance with respect to non-treated control at time zero is indicated. (E) Luciferase activity and (3-galactosidase activity (via 4-MUG hydrolysis) from proteose peptone-elicited lavage cells following stimulation with IL-4 (20 ng/mL) for 72 hours, normalized to non-treated controls. (F) Viability following 72 hour dose-response to JAK1/2 inhibitor Ruxolitinib in the presence or absence of IL-4 (10 ng/mL) stimulation, measured by CyQuant Direct DNA-based viability assay. Viability normalized to respective controls lacking Ruxolitinib. (G&H) Dose-response of STAT6 inhibitor AS1517499 against luciferase activity (G) and viability via CyQuant Direct assay (H) following 72 hour treatment in the presence and absence of IL-4 (10 ng/mL). Results normalized to respective controls (with or without IL-4) lacking STAT6 inhibitor. Statistical significance is calculated with respect to the difference between IL-4 stimulated and non-stimulated cells at each concentration of STAT6 inhibitor. (I) Relative luciferase activity per cell following repolarization with M1- and M2-inducing agents. Macrophages were left non-treated (NT) or treated with either LPS (1 ng/ml) or IL-4 (20 ng/ml) for 72 hours (days 1-3), as indicated. For each treatment set, samples were collected at 72 hours (no further treatment; days 4-6=x). Alternatively, cells were washed and placed in fresh medium (−), medium containing LPS (1 ng/mL) and IFN-γ (10 ng/mL), or medium containing IL-4 (20 ng/mL) and IL-13 (10 ng/mL) and incubated for an additional 72 hours prior to sample collection (as indicated for days 4-6). Luciferase activity is expressed as the percent activity per cell relative to non-treated (NT) controls after the first 72 hours.
FIG. 10. Elevated p16(Ink4a) and β-galactosidase is regulated by immunomodulatory agents in macrophages, but not in mesenchymal SCs. Primary cultures of adipose-derived mesenchymal stromal cells (AdMSC) isolated from p16^Ink4a/Luc mice were irradiated (20 Gy) and cultured for 10 days for senescence induction. Mock irradiated cells were used as a proliferating cell control. Response of senescent and proliferating AdMSCs to immunomodulatory agents were compared to that of peritoneal lavage cells elicited by our alginate bead model. A-D) Dose-response curves of LPS (top panels: […]) and Poly(I:C) (bottom panels: C&D) on p16(Ink4a) promoter-dependent luciferase activity (left panels: A&C) and beta-galactosidase activity measured via 4-MUG hydrolysis (right panels: B&D) after 72 hr treatment. […]
FIG. 13. […] SAM viability was determined using the resazurin cell viability assay (Res). […]

[2] = tested on: human neonatal dermal fibroblasts (NDF); assay: Resazurin viability assay, senescent vs proliferating/quiescent human neonatal dermal fibroblasts; format: cell-based; conditions: for IC50: Homo sapiens, Fibroblast, 72 h, 72 hour exposure; for Selectivity (Prolif/Sen): NDF
Protocol: FIG. 2. Compound A1.1 selectively kills senescent human neonatal dermal fibroblasts (NDF) cells in a dose- and time-dependent manner. (FIG. 2A) Normal proliferating and quiescent NDF cells, and the cells made senescent via exposure to genotoxic agents (doxorubicin, bleomycin and gamma-irradiation) were incubated with increasing concentrations of A1.1. At 72 hours post-treatment cell viability was measured via resazurin viability assay. (FIG. 2B) Compound A1.1 selectively kills senescent NDF cells in time-dependent manner discriminating between acute genotoxic stress and senescence. Acutely damaged NDF cells were irradiated with 4 Gy gamma-irradiation 24 hours before A1.1 treatment. Senescent NDF cells were treated with bleomycin or irradiated with 15 Gy and incubated for 14 days to induce senescence before treatment with A1.1. Proliferating acutely damaged and senescent NDF cell were treated with 1.875-30 μM A1.1 and viable cells were measured at 72 hours after treatment. Average and standard deviation are shown.
Normal proliferating and quiescent NDF cells, and the cells made senescent via exposure to genotoxic agents (doxorubicin, bleomycin and gamma-irradiation) were incubated with increasing concentrations of A1.1. At 72 hours post-treatment cell viability was measured via resazurin viability assay.
A1.1 selectively kills senescent human neonatal dermal fibroblasts (NDF) cells in time-dependent manner discriminating between acute genotoxic stress and senescence ([…]). Acutely damaged NDF cells were irradiated with 4 Gy gamma-irradiation 24 hours before A1.1 treatment. Senescent NDF cells were treated with bleomycin or irradiated with 15 Gy and incubated for 14 days to induce senescence before treatment with A1.1.
(§1) Cytotoxicity of A1.1 analogs against bleomycin-induced senescent human NDFs and rat dermal fibroblasts (RDFs). Activity of analogs was assessed from dose-response curves against irradiation- or bleomycin-induced senescent and proliferating cells to calculate IC50s (uM). The fold difference of proliferating versus senescent cell IC50s was used to assess the level of specific anti-senescent activity of the compounds.
(§2) For generation senescent human neonatal dermal fibroblasts (NDFs) and adult rat dermal fibroblasts (RDFs), cells are treated at ˜10 ug/ml bleomycin for 3 days (for bleomycin-induced senescence) or irradiated once at 20 Gy using a gamma irradiator (Cs source), followed by at least 7 day recovery in fresh medium for induction of senescence. Senescent and non-senescent (proliferating) cells for each cell line are plated into 384-w plate, followed by 72 hour exposure to a dose titration of compounds. Viability measurements are estimated using the resazurin viability assay. Using GraphPad Prism 5, the IC50 values are calculated from the non-linear regression of log-transformed compound concentrations versus dose-response normalized to background and non-treated controls.

[3] = tested on: adult rat dermal fibroblasts (RDF); assay: Resazurin viability assay, senescent vs proliferating rat dermal fibroblasts; format: cell-based; conditions: for IC50: Rattus norvegicus, Fibroblast
Protocol: as §1, §2

[4] = proliferating NDF, resazurin, read-out: IC50 NDFprolif
[5] = senescent NDF, bleomycin-induced, resazurin, read-out: IC50 NDFsen.bleo
[6] = light or radiation study, senescent NDF, irradiation-induced, resazurin, read-out: IC50 NDFsen.irr
[7] = light or radiation study, senescent RDF, irradiation-induced, 72 hour exposure, resazurin, read-out: IC50 RDFsen.irr
[8] = proliferating RDF, 72 hour exposure, resazurin, read-out: IC50 RDFprolif
[9] = senescent RDF, bleomycin-induced, 72 hour exposure, resazurin, read-out: IC50 RDFsen.bleo

Row | SMILES | toxicity to SAMs in combination with inducers of the M1-phenotype (LPS and interferon-gamma) ([1]; resazurin) | toxicity to SAMs, OT-82 by itself ([1]; resazurin / CyQuant, 500 nM) | IC50 [2, 4] | IC50 [2, 5] | IC50 [2, 6] | IC50 [3, 7] | IC50 [3, 8] | IC50 [3, 9] | SAM cell viability ([1]; resazurin / CyQuant, listed as TA-4812) | SAM cell viability ([1]; resazurin / CyQuant, listed as TA-04812-1) | Selectivity (Prolif/Sen) ([2]; Bleomycin) | Selectivity (Prolif/Sen) ([2]; Irradiation) | effect on viability of proliferating or quiescent NDF cells ([2]; concentrations up to 10 μM, 72 hours, resazurin) | Selectivity (Prolif/Sen) ([3]; RDF, Bleomycin) | Selectivity (Prolif/Sen) ([3]; RDF, Irradiation) | IC50 ([3]; light or radiation study, RDF, senescence induction: Irradiation, read-out: Activity against Senescent Cells (IC50; uM)) | IC50 ([3]; RDF proliferating, read-out: Activity against Proliferating Cells (IC50; uM)) | IC50 ([3]; RDF, senescence induction: Bleomycin, read-out: Activity against Senescent Cells (IC50; uM))
1 | O=C(NCCCc1cn[nH]c1)c1ccc(-c2ccncc2)c(C#Cc2ccc(F)cc2)c1 [OT-82] | toxic | low SAM toxicity; also recorded: almost non-toxic; also recorded: not toxic | – | – | – | – | – | – | – | – | – | – | – | – | – | – | – | –
2 | COc1ccc(C2CC(=NO)c3c(SCc4ccccc4)sc(C(=O)NCc4cccc(F)c4)c3C2)cc1 (stereo not drawn) [Example A1.6, 3-(Benzylthio)-N-(3-fluorobenzyl)-4-(hydroxyimino)-6-(4-methoxyphenyl)-4,5,6,7-tetrahydrobenzo[c]thiophene-1-carboxamide] | – | – | > 20 µM | < 5 µM | < 5 µM | < 5 µM | > 20 µM | < 5 µM | no effect | little to no effect | – | – | – | – | – | – | – | –
3 | CCOC(=O)c1sc(SCc2ccccc2)c2c1CC(c1ccc(OC)cc1)C/C2=N\O (stereo not drawn) [Example A1.1] | – | – | > 20 µM | < 5 µM | < 10 µM | < 5 µM | > 20 µM | < 10 µM | – | – | 5.3 | 2.9 | no significant effect | >4.6 | >4.4 | 4.5 µM | > 20 µM | 4.4 µM
